In ChEMBL document CHEMBL1137487, “Synthesis and biological activities of glycosphingolipid analogues from marine sponge Aplysinella rhax” (Bioorg Med Chem Lett, 2007):
Activity calls are given as the source filed them. The rule behind the calls is not given here.

The molecules below were run on J774.1 (assay: Inhibition of LPS-stimulated nitric oxide production in J774.1 cells). Details: Mus musculus.
Assay type: functional, cell-based
For `CC(=O)N[C@H]1[C@H](O[C@H]2[C@H](O[C@H]3O[C@H](C)[C@H](O)[C@H](O)[C@H]3O)[C@@H](NC(C)=O)[C@H](OCC[Si](C)(C)C)O[C@@H]2CO)O[C@H](CO)[C@H](O)[C@@H]1O`, the Activity was “Active”. `CCCCCCCCCCCCCCC(CCCCCCCCCCCCCC)CO[C@@H]1O[C@H](CO)[C@@H](O[C@@H]2O[C@H](CO)[C@H](O)[C@H](O)[C@H]2NC(C)=O)[C@H](O[C@H]2O[C@@H](C)[C@@H](O)[C@@H](O)[C@@H]2O)[C@H]1NC(C)=O` (stereo in doubt) was tested, and the Activity was “Active”. `CCCCCCCCCCCCCCC(CCCCCCCCCCCCCC)CO[C@@H]1O[C@H](CO)[C@@H](O[C@@H]2O[C@H](CO)[C@H](O)[C@H](O)[C@H]2NC(C)=O)[C@H](O[C@H]2O[C@H](C)[C@H](O)[C@H](O)[C@H]2O)[C@H]1NC(C)=O` was tested, and the Activity was “Active”. For `CCCCCCCCCCCCCCC(CCCCCCCCCCCCCC)CO[C@@H]1O[C@H](CO)[C@@H](O[C@@H]2O[C@H](CO)[C@H](O)[C@H](O)[C@H]2O)[C@H](O[C@H]2O[C@H](C)[C@H](O)[C@H](O)[C@H]2O)[C@H]1NC(C)=O`, the Activity was “Active”.
